What is called IC50 is the point on the concentration scale where inhibition reaches its midpoint.

Molecules are shown by their SMILES.

The target of test [1] is T1, WT E. coli DNA gyrase (Escherichia coli, UniProt P0AES4+P0AES6).
T1 construct: purchased Inspiralis Ltd. (Norwich, UK)
As to the kind of experiment: DNA gyrase inhibition assay. The class given is biochemical. The conditions noted are these: wild-type E. coli DNA gyrase; read-out: IC50 (converted). As to the method:
Gyrase inhibition was determined through biochemical assay kits from Inspiralis Ltd. (Norwich, UK), according to manufacturer’s instructions, and as described previously. Briefly, 1U of enzyme was incubated with 0.5 μg of relaxed […] DNA in the presence of compound in 1% DMSO for 30 min at 37 °C. A control reaction contained no compound but still contained 1% DMSO. The reactions were stopped through Stop Buffer addition and the DNA separated through addition of chloroform/iso-amyl alcohol (24;1). Samples were run on a 1% agarose gel at 75 V for 2 h, which was then stained with 1 μg/mL ethidium bromide and visualized using a NuGenius gel imager (Syngene). The intensity of the supercoiled DNA band was quantified using Syngene software, and the inhibition of the supercoiling of the DNA by the compounds was calculated.

Test [2] has as its system MRSA ATCC 33591. As to the kind of experiment: Neutropenic murine thigh infection model. The conditions noted are these: oral 50 mg/kg TID at 2, 8, and 14 h postinfection; at 26 h.

T1 sequence (P0AES4 whole entry, one chain of several): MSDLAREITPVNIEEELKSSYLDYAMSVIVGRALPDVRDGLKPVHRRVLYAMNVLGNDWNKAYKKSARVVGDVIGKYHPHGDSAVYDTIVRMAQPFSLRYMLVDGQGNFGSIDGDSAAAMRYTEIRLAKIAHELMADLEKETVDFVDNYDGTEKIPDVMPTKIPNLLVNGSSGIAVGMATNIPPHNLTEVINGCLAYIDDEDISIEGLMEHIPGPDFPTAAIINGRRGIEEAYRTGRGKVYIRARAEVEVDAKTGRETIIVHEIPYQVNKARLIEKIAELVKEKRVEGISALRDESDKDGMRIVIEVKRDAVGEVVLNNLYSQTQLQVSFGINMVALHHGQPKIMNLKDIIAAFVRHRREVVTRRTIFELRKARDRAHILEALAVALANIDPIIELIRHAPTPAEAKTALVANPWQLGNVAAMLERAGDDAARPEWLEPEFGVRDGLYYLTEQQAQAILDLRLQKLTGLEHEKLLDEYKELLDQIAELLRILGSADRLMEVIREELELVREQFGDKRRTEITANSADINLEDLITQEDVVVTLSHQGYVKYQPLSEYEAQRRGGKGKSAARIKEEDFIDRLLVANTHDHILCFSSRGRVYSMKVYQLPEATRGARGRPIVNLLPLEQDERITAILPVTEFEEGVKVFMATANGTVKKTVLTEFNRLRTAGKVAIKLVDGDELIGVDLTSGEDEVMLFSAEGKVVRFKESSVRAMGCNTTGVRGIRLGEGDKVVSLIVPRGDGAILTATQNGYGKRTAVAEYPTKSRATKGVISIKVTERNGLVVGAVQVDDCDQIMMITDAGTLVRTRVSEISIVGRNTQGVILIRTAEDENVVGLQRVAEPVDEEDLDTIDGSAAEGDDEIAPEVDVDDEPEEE

Take `C[C@H]1COc2c(N3CCN(C)CC3)c(F)cc3c(=O)c(C(=O)O)cn1c23` [Levofloxacin, (S)-9-Fluoro-3-methyl-10-(4-methylpiperazin-1-yl)-7-oxo-2,3-dihydro-7H-[1,4]oxazino[2,3,4-ij]quinoline-6-carboxylic acid, reference compound]: the half-maximal inhibitory concentration (IC50) in test [1] is 526 nM. For the same molecule, in test [2], the “bacterial counts in thigh” value is given as 4.51 log10 CFU/g.

For the origin of these results see publication PMC13266999, “Designing Antibiotics with Inherent Resistance to Efflux as a Strategy to Revive Discovery against Multidrug-Resistant Pathogens” (Journal of Medicinal Chemistry, 2026).
